Earlier results on three compounds are cited in publication PMC8369186, “Ligand-Based and Docking-Based Virtual Screening of MDM2 Inhibitors as Potent Anticancer Agents” (Computational and Mathematical Methods in Medicine, 2021).

The test system of the series is human MDM2. The settings on record: training set, cited from earlier work; for IC50: ref 24 (TS-1), 25 (TS-2), 12 (TS-3), 26 (TS-4), 8 (TS-6), 28 (TS-7), read-out: Potency human MDM2 (nM), IC50.

As usually defined, the IC50 is the midpoint of a concentration-inhibition curve. For `CCOc1cc(C(C)(C)C)ccc1C1=NC(C)(c2ccc(Cl)cc2)C(C)(c2ccc(Cl)cc2)N1C(=O)N1CCN(CCCS(C)(=O)=O)CC1` (stereo not drawn) [TS-2], the IC50 is 18 nM.
One may read the Ki as a dissociation constant, usually derived from enzyme kinetics or from competition with a known ligand. With `CC(C)(C)C[C@H]1N[C@@H](C(N)=O)[C@H](c2cccc(Cl)c2F)C12C(=O)Nc1cc(Cl)ccc12` (stereo partly drawn) [TS-5], under “read-out: Potency human MDM2 (nM), Ki”, the inhibitory constant (Ki) was 3 nM.
`O=C(NCCN1CCOCC1)c1[nH]c2cc(Cl)ccc2c1-c1c(-c2ccccc2)ncn1Cc1ccc(Cl)cc1` [TS-6]: the IC50 is 30 nM.
